These results are taken from US20250205158A1, “BIODEGRADABLE LIPIDS AND FORMULATIONS FOR DELIVERY OF MRNA” (Massachusetts Institute of Technology, priority 2023, published 2025).

SMILES strings stand for the structures.

Data set [1] relates to mice. The data set is described as follows: Germinal center response after HA mRNA LNP prime dose. In kind it is in vivo, BALB/cJ mice. The settings on record: LDLN 8 days following a prime dose.
Data set [2] in a line: in vivo. The settings on record: C57BL/6, mouse, im.
Data set [3] is described as follows: 31P NMR membrane fusion study. The settings on record: acidic pH. In kind it is physicochemical. As to the method:
Structural features of AMG lipids that facilitate mRNA delivery. The factors contributing to lipid potency were evaluated. The ionization properties of AMG1541 LNPs were investigated using a previously established 6-(p-toluidino)-2-napthalenesulfonic acid (TNS) assay.^22 The pKa of AMG LNPs showing higher in vivo mRNA transfection than SM-102 ranged between pH 6.4-6.7. […] In addition to endosomal buffering, it is hypothesized that the protonated ionizable lipids within the acidic endosome bind with anionic phospholipids within the endosomal membrane, destabilizing the membrane's bilayer and promoting endosomal pore formation.^17,52 The membrane fusion properties of the ionizable lipids was evaluated via ^31P NMR. When bilayer forming DPPS vesicles were mixed with equimolar AMG lipid under acidic conditions, a bilayer to hexagonal phase transition was observed, indicating their membrane-destabilizing nature (FIG. 15D).

For data set [4], the system named is mice. The data set is described as follows: IFN-γ ELISpot and supernatant cytokines of peptide-stimulated splenocytes after HA mRNA vaccination. In kind it is in vivo, BALB/cJ and C57B1/6J mice. Here is the method: Further experiments to evaluate the dose-sparing potential of AMG1541 were performed for influenza vaccination.^34,35 The immunogenicity of AMG1541 was compared to the clinical benchmark SM-102 by formulating each into LNPs containing hemagglutinin (HA) (A/Tasmania/503/2020 H3N2) mRNA. BALB/cJ mice were vaccinated with […] of these mRNA LNPs and the quality of humoral and cellular immunity following vaccination was evaluated. Enhancing each component of immunity contributes to improving vaccine protection—humoral immunity provides protection against initial infection while cellular immunity improves the clearance of breakthrough infections. […] Male and female mice vaccinated with AMG1541 had 15.8- and 6.8-fold higher endpoint titers, respectively (FIG. 13C). […] Serum cytokines were examined 6 hours after the boost dose to determine whether the enhanced immunogenicity of AMG1541 also led to increased systemic inflammation (FIGS. 20A-20C). […]
IFN-γ ELISpot. […] Cells were then pelleted, resuspended in PBS+1% BSA, and counted using a countess 3 automated cell counter (ThermoFisher). […]
Luminex. […] The supernatants from the stimulated splenocytes used for the ELISpot assay were analyzed using Eve Technologies' Mouse High Sensitivity 18-Plex Discovery Assay® (MilliporeSigma, Burlington, Massachusetts, USA) according to the manufacturer's protocol. […]

The test system of data set [5] is influenza A/Tasmania/503/2020 virus. The data set is described as follows: Hemagglutination inhibition (HAI) assay, neutralizing antibody titers after HA mRNA vaccination. In kind it is in vivo, BALB/cJ mice. As to the method:
To test this, a dose-response vaccination experiment ranging from […] was performed in female BALB/cJ mice. Neutralizing antibody titers were evaluated using the hemagglutination inhibition (HAI) assay. HAI titers are strongly correlated with vaccine protection and the assay is an FDA approved method for testing influenza vaccine efficacy^38,39 In agreement with the binding antibody titers, higher neutralizing […] were measured across all three tested doses: SM-102 only gave detectable neutralizing immunity at a 1 μg dose, while AMG1541 gave neutralizing immunity with as little was 10 ng of mRNA (FIG. 13H). Not only was AMG1541 able to generate neutralizing immunity at a very low dose, the binding and neutralizing antibody titers were equivalent in mice vaccinated with AMG1541 at a […] as those with SM-102 at a […] (FIG. 13H).
HAI Assay. HAI assays were performed by IBT bioservices. Viral titers were standardized by defining one HA unit as the amount of inactivated influenza A/Tasmania/503/2020 virus required to completely hemagglutinate an equal volume of 1% turkey red blood cells (TRBCs) (Lampire). Serum was heat inactivated at 56° C. then receptor destroying enzyme (RDE) (DENKA) was added to the serum and incubated at 37° C. for 20 hrs. RDE was then deactivated at 56° C. for 60 mins. Serum samples were then serially diluted in DPBS and 25 μL of diluted serum was added to a 96-well V bottom plate. Subsequently, four HA units of inactivated virus in 25 μL of DPBS were added to the diluted serum and incubated for 30 mins. at RT. 50 μL of a 1% (4×10^7 cells/mL) solution of turkey red blood cells (Lampire) was then added to the serum and virus mixture.

The half-life is the time needed for the level to fall by half in the phase considered. Low readings indicate fast loss, high ones slow loss. Turning to `CCCCCC/C=C\CCCC(=O)OCC(O)CN1CCN(CC(O)COC(=O)CCC/C=C\CCCCCC)CCN(CC(O)COC(=O)CCC/C=C\CCCCCC)CCN(CC(O)COC(=O)CCC/C=C\CCCCCC)CCN(CC(O)COC(=O)CCC/C=C\CCCCCC)CCN(CC(O)COC(=O)CCC/C=C\CCCCCC)CC1` (stereo not drawn) [AMG1541], in data set [1], the “fold higher Ag+ GC B cells than SM-102 treated mice” value turned out to be 6.0 fold and the “fold more Fas+GL7+ GC B cells than SM-102 treated mice” value came out at 4.8 fold. Also, the half-life in data set [2] was 180 min. Also, in data set [3], the “31P NMR phase behaviour” value is given as “bilayer membrane to hexagonal HII transformation”. Also, in data set [4] (BALB/cJ mice, HA mRNA, dose=1 μg), the “cytokines in media from splenocytes stimulated with MHC-binding peptides” value was “significant upregulation of IL-4, and IL-5 in both male and female mice and IL-10 in female mice”. Besides, the “fold more Spot Forming Units (SFU) relative to SM-102” value in data set [4] (IFN-γ ELISpot, MHC-I stimulated splenocytes, female C57B1/6J mice) amounted to 6.6 fold. For the same molecule, the “fold higher neutralizing titers than SM-102” value in data set [5] (equivalent vaccine dose) is given as 13 fold. In data set [5] (female BALB/cJ mice, dose-response vaccination), the “lowest mRNA dose giving neutralizing immunity” value is 10 ng. Further, the “fold lower dose giving similar protective immunity to SM-102” value in data set [5] (mouse, in vivo) worked out at 100 fold.
